Results as given in ChEMBL document CHEMBL4619708, “Synthesis and biological evaluation of isoliquiritigenin derivatives as a neuroprotective agent against glutamate mediated neurotoxicity in HT22 cells” (2020).
Calls of active or inactive are those of the source. The calls are words filed in the database; no cut-off is given here.

Assays:
HT-22 [1] = assay: Neuroprotection against glutamate-induced oxidative stress in mouse HT22 cells assessed as increase in cell viability pretreated with glutamate for 24 hrs followed by compound addition by calcein AM and PI staining based assay; assay type: functional
HT-22 [2] = assay: Neuroprotection against glutamate-induced oxidative stress in mouse HT22 cells assessed as increase in cell viability at 3 to 6 uM pretreated with glutamate for 24 hrs followed by compound addition by calcein AM and PI staining based assay; assay type: functional
HT-22 [3] = assay: Neuroprotection against glutamate-induced oxidative stress in mouse HT22 cells assessed as decrease in translocation of AIF to nucleus at 100 uM by Western blot analysis; assay type: functional, cell-based
HT-22 [4] = assay: Neuroprotection against glutamate-induced oxidative stress in mouse HT22 cells assessed as reduction in Ca2+ influx pretreated with glutamate for 8 hrs followed by compound addition by Fluo3-AM staining based fluorescent microscopic method; assay type: functional, cell-based
HT-22 [5] = assay: Neuroprotection against glutamate-induced oxidative stress in mouse HT22 cells assessed as reduction in cellular ROS level by DCFDA staining based FACS analysis; assay type: functional, cell-based
HT-22 [6] = assay: Neuroprotection against glutamate-induced oxidative stress in mouse HT22 cells assessed as increase in cell viability by MTT assay; assay type: functional, cell-based
HT-22 [7] = assay: Neuroprotective activity in mouse HT22 cells assessed as apoptotic or dead cells by annexin V and PI staining based assay (reference value: 2.58%); assay type: functional
HT-22 [8] = assay: Neuroprotection against glutamate-induced oxidative stress in mouse HT22 cells assessed as reduction in phosphorylated p38 protein level at 100 uM by Western blot analysis; assay type: functional, cell-based
HT-22 [9] = assay: Neuroprotection against glutamate-induced oxidative stress in mouse HT22 cells assessed as increase in cell viability at 100 uM pretreated with glutamate for 24 hrs followed by compound addition by calcein AM and PI staining based assay; assay type: functional
HT-22 [10] = assay: Neuroprotection against glutamate-induced oxidative stress in mouse HT22 cells assessed as reduction in phosphorylated JNK protein level at 100 uM by Western blot analysis; assay type: functional, cell-based
HT-22 [11] = assay: Neuroprotection against glutamate-induced oxidative stress in mouse HT22 cells assessed as increase in bcl2 protein level at 100 uM by Western blot analysis; assay type: functional, cell-based
HT-22 [12] = assay: Neuroprotection against glutamate-induced oxidative stress in mouse HT22 cells assessed as reduction in Ca2+ influx pretreated with glutamate for 8 hrs followed by compound addition by Fluo3-AM staining based fluorescent microscopic method relative to control; assay type: functional; parameters: scale not given: the % may be the effect or the level left
HT-22 [13] = assay: Neuroprotection against glutamate-induced oxidative stress in mouse HT22 cells assessed as reduction in bax protein level at 100 uM by Western blot analysis; assay type: functional, cell-based
HT-22 [14] = assay: Neuroprotection against glutamate-induced oxidative stress in mouse HT22 cells assessed as apoptotic or dead cells pretreated with glutamate for 8 hrs followed by compound addition by annexin V and PI staining based assay (reference value: 2.58%); assay type: functional
HT-22 [15] = assay: Neuroprotection against glutamate-induced oxidative stress in mouse HT22 cells assessed as reduction in phosphorylated ERK protein level at 100 uM by Western blot analysis; assay type: functional, cell-based
HT-22 [16] = assay: Neuroprotection against glutamate-induced oxidative stress in mouse HT22 cells assessed as increase in cell viability at 50 to 100 uM pretreated with glutamate for 24 hrs followed by compound addition by calcein AM and PI staining based assay; assay type: functional

Row | SMILES | Activity (HT-22 [1]) | further results
1 | O=C(/C=C/c1ccc(-c2ccccc2)cc1)c1ccc(O)cc1O | inactive | 
2 | COc1cc(Br)c(/C=C/C(=O)c2ccc(O)cc2O)cc1OC | inactive | Activity (HT-22 [2]): Active
3 | CC(=O)N[C@@H](CS)C(=O)O | inactive | 
4 | CCn1c2ccccc2c2cc(/C=C/C(=O)c3ccc(O)cc3O)ccc21 | inactive | 
5 | O=C(/C=C/c1ccc(C(F)(F)F)cc1)c1ccc(O)cc1O | inactive | 
6 | COc1ccc(/C=C/C(=O)c2ccc(O)cc2O)cc1OC | inactive | 
7 | CN(C)c1ccc(/C=C/C(=O)c2ccc(O)cc2O)cc1 | Active | Activity (HT-22 [3]): Active; Activity (HT-22 [4]): Active; Activity (HT-22 [5]): Active; Activity (HT-22 [6]): Active; Activity (HT-22 [7]): 6.01%; Activity (HT-22 [8]): Active; Activity (HT-22 [9]): Active; Activity (HT-22 [10]): Active; Activity (HT-22 [11]): Active; Activity (HT-22 [12]): 50%; Activity (HT-22 [13]): Active; Activity (HT-22 [14]): 6.4%; Activity (HT-22 [15]): Active
8 | O=C(/C=C/c1ccc2ccccc2c1)c1ccc(O)cc1O | inactive | 
9 | O=C(/C=C/c1ccc2[nH]ccc2c1)c1ccc(O)cc1O | Active | 
10 | COc1ccc(/C=C/C(=O)c2ccc(O)cc2O)cc1 | inactive | 
11 | COc1cc(/C=C/C(=O)c2ccc(O)cc2O)cc(OC)c1Br | inactive | 
12 | COc1cc(/C=C/C(=O)c2ccc(O)cc2O)cc(OC)c1OC | inactive | 
13 | COc1cccc(/C=C/C(=O)c2ccc(O)cc2O)c1 | inactive | 
14 | COc1cc(/C=C/C(=O)c2ccc(O)cc2O)ccc1O | inactive | 
15 | O=C(/C=C/c1ccccc1)c1ccc(O)cc1O | inactive | 
16 | O=C(/C=C/c1ccc(O)cc1)c1ccc(O)cc1O | inactive | Activity (HT-22 [16]): inactive
17 | O=C(/C=C/c1ccc(O)c(O)c1)c1ccc(O)cc1O | inactive | 
18 | O=C(/C=C/c1ccc(Cl)cc1)c1ccc(O)cc1O | inactive | 
19 | O=C(/C=C/c1cccc(O)c1)c1ccc(O)cc1O | inactive | 
